Test results as given in PMC9454089, “Structural and Mechanistic Evidence for Calcium Interacting Sites in the HIV Transmembrane Protein gp41 Involved in Membrane Fusion” (Biochemistry, 2022).
Read-outs that look alike come from different tables or passages of the source. Residues, ends and D or L forms follow the SMILES beside them.

Tested on: gp41 mediated cell–cell fusion (HXB2 strain HIV-1 Env; HL2-3 / TZM-bl cells)
Type: cell-based
Settings: Figure 3, TZM-bl target and HL2/3 effector cells, 6 h coculture at 37 °C, luciferase, average ± S.E.M., n = 3, read-out: IC50, inhibition of cell–cell fusion
Method: Effector cells were the Env expressing cells HL2-3, a HeLa-derived cell line which constitutively expresses the HXB2 strain of the HIV-1 Env glycoprotein along the Tat protein, and as target cells, TZM-bl cells were used. The fusion of HL2-3 cells with TZM-bl cells was assessed through luciferase expression. The TZM-bl cells were seeded at 2 × 10^4 cells/well overnight in 96-well plates. The medium was then aspirated from each well and replaced with serum-free DMEM containing 40 μg/mL DEAE-dextran. […] Upon addition of the peptides, the HL2-3 cells were added to the TZM-bl cells in serum-free DMEM containing 40 μg/mL DEAE-dextran at a 1:1 cell ratio. The cells were cocultured at 37 °C for 6 h to allow the fusion to occur. Luciferase activity was analyzed using the Steady-Glo luciferase assay kit (Promega). Fitting of the data points was performed according to the following equation, derived from Hills’ equation [drawing 1]
For the fitting, we uploaded the X and Y values of the data into a nonlinear least-square regression (curve fitter) program that provided the IC50 value (parameter A).
A one-tailed Student’s T-test was used. P < 0.05 was considered significant. Analyses were done using GraphPad Prism (data analysis software) version 6.05 (*P ≤ 0.05, **P ≤ 0.01, and ***P ≤ 0.001).

Compound | IC50 (0 mM Ca2+) [µM] | IC50 (2 mM Ca2+) [µM] | IC50 (5 mM Ca2+) [µM]
CC[C@H](C)[C@H](NC(=O)CNC(=O)[C@H](Cc1c[nH]c2ccccc12)NC(=O)[C@@H](NC(=O)[C@@H](NC(=O)[C@H](CC(C)C)NC(=O)[C@H](CCC(N)=O)NC(=O)[C@H](CC(C)C)NC(=O)[C@H](CC(C)C)NC(=O)[C@H](C)NC(=O)[C@H](CCC(N)=O)NC(=O)[C@H](CCC(N)=O)NC(=O)[C@H](C)NC(=O)[C@H](C)NC(=O)[C@@H](NC(=O)[C@H](C)NC(=O)[C@H](C)NC(=O)[C@H](CC(C)C)NC(=O)[C@H](CC(C)C)NC(=O)[C@H](CC(N)=O)NC(=O)[C@H](CC(N)=O)NC(=O)[C@H](CCC(N)=O)NC(=O)[C@H](CCC(N)=O)NC(=O)[C@H](CCC(N)=O)NC(=O)[C@@H](NC(=O)[C@@H](NC(=O)CNC(=O)[C@@H](N)CO)[C@@H](C)CC)C(C)C)[C@@H](C)CC)[C@@H](C)O)C(C)C)C(=O)N[C@@H](CCCCN)C(=O)N[C@@H](CCC(N)=O)C(=O)N[C@@H](CC(C)C)C(=O)N[C@@H](CCC(N)=O)C(=O)N[C@@H](C)C(=O)N[C@@H](CCCNC(=N)N)C(=O)N[C@H](C(=O)N[C@@H](CC(C)C)C(N)=O)[C@@H](C)CC [N36 3A] (H-SGIVQQQNNLLAAIAAQQALLQLTVWGIKQLQARIL-NH2) | 2.98 ± 1.07 | 0.262 ± 0.18 | 0.8 ± 0.14
CC[C@H](C)[C@H](NC(=O)[C@H](CCC(=O)O)NC(=O)[C@H](CCCNC(=N)N)NC(=O)[C@H](C)NC(=O)[C@H](Cc1c[nH]c2ccccc12)NC(=O)[C@H](CCC(=O)O)NC(=O)[C@H](CCSC)NC(=O)[C@@H](N)Cc1c[nH]c2ccccc12)C(=O)N[C@@H](CC(N)=O)C(=O)N[C@@H](CC(N)=O)C(=O)N[C@@H](Cc1ccc(O)cc1)C(=O)N[C@H](C(=O)N[C@@H](CO)C(=O)N[C@@H](CC(C)C)C(=O)N[C@H](C(=O)N[C@@H](Cc1c[nH]cn1)C(=O)N[C@@H](CO)C(=O)N[C@@H](CC(C)C)C(=O)N[C@H](C(=O)N[C@@H](CCC(=O)O)C(=O)N[C@@H](CCC(=O)O)C(=O)N[C@@H](CO)C(=O)N[C@@H](CCC(N)=O)C(=O)N[C@@H](CC(N)=O)C(=O)N[C@@H](CCC(N)=O)C(=O)N[C@@H](CCC(N)=O)C(=O)N[C@@H](CCC(=O)O)C(=O)N[C@@H](CCCCN)C(=O)N[C@@H](CC(N)=O)C(=O)N[C@@H](CCC(=O)O)C(=O)N[C@@H](CCC(N)=O)C(=O)N[C@@H](CCC(=O)O)C(=O)N[C@@H](CC(C)C)C(=O)N[C@@H](CC(C)C)C(N)=O)[C@@H](C)CC)[C@@H](C)CC)[C@@H](C)O [C34 D-A] | 0.0006 ± 0.0004 | 0.0015 ± 0.0007 | 
